Laboratory results published in ChEMBL document CHEMBL5678807, “A selective jumonji H3K27 demethylase inhibitor modulates the proinflammatory macrophage response” (Nature, 2012).

How the values were obtained:
Macrophage [1] = assay: Antiinflammatory activity in human primary macrophages assessed as effect on LPS-induced IFNG gene expression at 30 uM measured after 2 hrs by RT-PCR array (reference value: 240 a.u.); type: functional
Macrophage [2] = assay: Antiinflammatory activity in human primary macrophages assessed as effect on LPS-induced TGFB3 gene expression at 30 uM measured after 2 hrs by RT-PCR array (reference value: 524 a.u.); type: functional
[3] = Prodrug conversion in human primary macrophage lysates assessed as formation of GSK-J1 at 30 uM measured after 1 hr by RP LC-MS/MS analysis; type: ADME, subcellular
[4] = Prodrug conversion in human primary macrophage lysates assessed as formation of GSK-J2 at 30 uM measured after 1 hr by RP LC-MS/MS analysis; type: ADME, subcellular
[5] = molecular target: Lysine-specific demethylase 4C (Homo sapiens, UniProt Q9H3R0); assay: Inhibition of human JmjD2c using H3K27(me3) as substrate preincubated for 10 mins followed by substrate addition and measured after 7 mins in presence of alpha-KG by RapidFire Mass Spectrometry
Histone deacetylase 7 = Histone deacetylase 7 (Homo sapiens, UniProt Q8WUI4); assay: Inhibition of human HDAC7 by FLINT assay
[6] = molecular target: Lysine-specific demethylase 5C (Homo sapiens, UniProt P41229); assay: Inhibition of human Jarid1c by MALDI-TOF analysis
[7] = molecular target: T1, Lysine-specific demethylase 4A (Homo sapiens, UniProt O75164); assay: Inhibition of human JmjD2a using H3K27(me3) as substrate preincubated for 10 mins followed by substrate addition and measured after 7 mins in presence of alpha-KG by RapidFire Mass Spectrometry
[8] = molecular target: T1, Lysine-specific demethylase 4A; assay: Inhibition of human JmjD2a by Alphascreen assay
[9] = molecular target: Lysine-specific demethylase 6A (Homo sapiens, UniProt O15550); assay: Inhibition of human UTX using Biotin-KAPRKQLATKAARK(me3)SAPATGG as substrate by MALDI-TOF analysis
[10] = molecular target: Acetylcholine receptor subunit alpha (Homo sapiens, UniProt P02708); assay: Antagonist activity at human alpha 1 nAChR by intracellular Ca fluorescence assay; type: cell-based
[11] = molecular target: Lysine-specific demethylase 4E (Homo sapiens, UniProt B2RXH2); assay: Inhibition of human JmjD2e using H3K27(me3) as substrate preincubated for 10 mins followed by substrate addition and measured after 7 mins in presence of alpha-KG by RapidFire Mass Spectrometry
Lysine-specific demethylase 4E, sequence (B2RXH2 whole entry): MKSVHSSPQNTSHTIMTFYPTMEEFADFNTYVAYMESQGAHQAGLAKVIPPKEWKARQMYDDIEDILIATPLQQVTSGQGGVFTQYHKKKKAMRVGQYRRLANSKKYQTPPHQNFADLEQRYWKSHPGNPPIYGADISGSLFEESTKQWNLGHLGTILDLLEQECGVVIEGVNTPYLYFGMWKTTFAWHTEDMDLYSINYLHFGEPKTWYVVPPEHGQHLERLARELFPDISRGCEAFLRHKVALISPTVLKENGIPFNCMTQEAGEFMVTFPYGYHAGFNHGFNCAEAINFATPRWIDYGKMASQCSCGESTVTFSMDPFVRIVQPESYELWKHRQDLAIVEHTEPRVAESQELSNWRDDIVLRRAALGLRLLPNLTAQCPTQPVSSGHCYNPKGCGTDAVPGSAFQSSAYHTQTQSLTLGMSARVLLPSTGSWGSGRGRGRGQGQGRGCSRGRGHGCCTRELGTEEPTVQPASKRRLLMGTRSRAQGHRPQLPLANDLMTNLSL

Acetylcholine receptor subunit alpha, sequence (P02708 whole entry): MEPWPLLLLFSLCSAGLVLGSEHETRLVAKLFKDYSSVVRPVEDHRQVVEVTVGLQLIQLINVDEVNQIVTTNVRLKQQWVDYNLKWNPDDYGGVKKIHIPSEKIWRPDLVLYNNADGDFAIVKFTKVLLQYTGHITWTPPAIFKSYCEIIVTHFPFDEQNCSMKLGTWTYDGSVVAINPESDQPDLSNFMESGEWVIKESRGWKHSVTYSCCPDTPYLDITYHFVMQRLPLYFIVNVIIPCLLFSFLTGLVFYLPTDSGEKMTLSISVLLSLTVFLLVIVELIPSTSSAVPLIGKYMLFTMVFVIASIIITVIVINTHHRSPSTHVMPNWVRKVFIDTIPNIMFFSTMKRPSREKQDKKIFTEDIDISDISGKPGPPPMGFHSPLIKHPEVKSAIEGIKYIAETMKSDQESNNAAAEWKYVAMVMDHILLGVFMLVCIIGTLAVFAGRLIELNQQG
Histone deacetylase 7, sequence (Q8WUI4 whole entry): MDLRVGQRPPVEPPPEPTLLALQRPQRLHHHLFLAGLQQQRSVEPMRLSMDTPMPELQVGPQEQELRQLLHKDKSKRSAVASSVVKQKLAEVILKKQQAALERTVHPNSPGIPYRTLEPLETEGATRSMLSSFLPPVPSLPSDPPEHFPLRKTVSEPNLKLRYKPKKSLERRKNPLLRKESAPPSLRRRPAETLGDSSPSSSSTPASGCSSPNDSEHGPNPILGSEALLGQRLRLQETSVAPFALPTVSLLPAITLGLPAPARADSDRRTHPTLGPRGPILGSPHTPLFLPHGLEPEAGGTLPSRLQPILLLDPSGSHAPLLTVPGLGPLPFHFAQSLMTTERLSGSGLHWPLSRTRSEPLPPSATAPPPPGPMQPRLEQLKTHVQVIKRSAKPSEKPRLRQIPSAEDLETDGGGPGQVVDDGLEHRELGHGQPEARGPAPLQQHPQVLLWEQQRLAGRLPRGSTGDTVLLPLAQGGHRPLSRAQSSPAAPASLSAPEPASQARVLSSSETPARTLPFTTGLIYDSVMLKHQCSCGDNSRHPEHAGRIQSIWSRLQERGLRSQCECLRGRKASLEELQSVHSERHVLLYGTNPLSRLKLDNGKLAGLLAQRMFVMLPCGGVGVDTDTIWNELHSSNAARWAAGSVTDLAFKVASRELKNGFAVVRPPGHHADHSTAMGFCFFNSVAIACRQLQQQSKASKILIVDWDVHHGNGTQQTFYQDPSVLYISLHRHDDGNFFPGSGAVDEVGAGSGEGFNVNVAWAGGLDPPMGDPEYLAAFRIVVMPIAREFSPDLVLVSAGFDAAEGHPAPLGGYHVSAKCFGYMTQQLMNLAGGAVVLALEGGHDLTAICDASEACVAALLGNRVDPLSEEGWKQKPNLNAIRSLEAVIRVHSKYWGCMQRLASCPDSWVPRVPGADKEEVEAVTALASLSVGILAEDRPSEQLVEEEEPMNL
T1 sequence (O75164 whole entry): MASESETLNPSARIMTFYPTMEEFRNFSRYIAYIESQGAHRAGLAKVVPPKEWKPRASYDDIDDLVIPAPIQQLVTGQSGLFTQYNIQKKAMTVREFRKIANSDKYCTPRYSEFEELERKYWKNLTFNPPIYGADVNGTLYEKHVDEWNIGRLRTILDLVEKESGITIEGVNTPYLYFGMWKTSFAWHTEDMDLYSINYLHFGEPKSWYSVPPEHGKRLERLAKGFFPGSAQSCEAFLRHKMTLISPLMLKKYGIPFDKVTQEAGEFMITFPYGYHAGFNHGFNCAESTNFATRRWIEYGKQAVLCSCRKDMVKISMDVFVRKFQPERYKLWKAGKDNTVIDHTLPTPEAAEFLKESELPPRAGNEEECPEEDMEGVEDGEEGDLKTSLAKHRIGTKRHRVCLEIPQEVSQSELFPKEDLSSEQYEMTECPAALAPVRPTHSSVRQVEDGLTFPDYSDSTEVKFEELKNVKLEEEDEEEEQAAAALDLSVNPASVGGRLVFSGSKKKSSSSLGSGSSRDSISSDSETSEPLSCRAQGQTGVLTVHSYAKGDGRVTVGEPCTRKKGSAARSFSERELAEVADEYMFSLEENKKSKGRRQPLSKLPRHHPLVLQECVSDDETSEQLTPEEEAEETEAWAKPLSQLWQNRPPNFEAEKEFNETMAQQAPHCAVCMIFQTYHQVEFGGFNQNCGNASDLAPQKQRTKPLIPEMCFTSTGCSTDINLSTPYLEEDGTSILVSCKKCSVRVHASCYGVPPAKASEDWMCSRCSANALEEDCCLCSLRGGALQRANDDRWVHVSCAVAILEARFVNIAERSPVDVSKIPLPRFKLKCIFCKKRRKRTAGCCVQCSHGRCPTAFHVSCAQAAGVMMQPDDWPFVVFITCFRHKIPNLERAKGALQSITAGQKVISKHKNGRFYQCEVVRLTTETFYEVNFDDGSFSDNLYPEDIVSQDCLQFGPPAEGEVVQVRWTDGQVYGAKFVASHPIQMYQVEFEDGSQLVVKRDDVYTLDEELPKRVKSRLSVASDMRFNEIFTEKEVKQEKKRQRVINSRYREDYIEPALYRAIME
Lysine-specific demethylase 6A, sequence (O15550 whole entry): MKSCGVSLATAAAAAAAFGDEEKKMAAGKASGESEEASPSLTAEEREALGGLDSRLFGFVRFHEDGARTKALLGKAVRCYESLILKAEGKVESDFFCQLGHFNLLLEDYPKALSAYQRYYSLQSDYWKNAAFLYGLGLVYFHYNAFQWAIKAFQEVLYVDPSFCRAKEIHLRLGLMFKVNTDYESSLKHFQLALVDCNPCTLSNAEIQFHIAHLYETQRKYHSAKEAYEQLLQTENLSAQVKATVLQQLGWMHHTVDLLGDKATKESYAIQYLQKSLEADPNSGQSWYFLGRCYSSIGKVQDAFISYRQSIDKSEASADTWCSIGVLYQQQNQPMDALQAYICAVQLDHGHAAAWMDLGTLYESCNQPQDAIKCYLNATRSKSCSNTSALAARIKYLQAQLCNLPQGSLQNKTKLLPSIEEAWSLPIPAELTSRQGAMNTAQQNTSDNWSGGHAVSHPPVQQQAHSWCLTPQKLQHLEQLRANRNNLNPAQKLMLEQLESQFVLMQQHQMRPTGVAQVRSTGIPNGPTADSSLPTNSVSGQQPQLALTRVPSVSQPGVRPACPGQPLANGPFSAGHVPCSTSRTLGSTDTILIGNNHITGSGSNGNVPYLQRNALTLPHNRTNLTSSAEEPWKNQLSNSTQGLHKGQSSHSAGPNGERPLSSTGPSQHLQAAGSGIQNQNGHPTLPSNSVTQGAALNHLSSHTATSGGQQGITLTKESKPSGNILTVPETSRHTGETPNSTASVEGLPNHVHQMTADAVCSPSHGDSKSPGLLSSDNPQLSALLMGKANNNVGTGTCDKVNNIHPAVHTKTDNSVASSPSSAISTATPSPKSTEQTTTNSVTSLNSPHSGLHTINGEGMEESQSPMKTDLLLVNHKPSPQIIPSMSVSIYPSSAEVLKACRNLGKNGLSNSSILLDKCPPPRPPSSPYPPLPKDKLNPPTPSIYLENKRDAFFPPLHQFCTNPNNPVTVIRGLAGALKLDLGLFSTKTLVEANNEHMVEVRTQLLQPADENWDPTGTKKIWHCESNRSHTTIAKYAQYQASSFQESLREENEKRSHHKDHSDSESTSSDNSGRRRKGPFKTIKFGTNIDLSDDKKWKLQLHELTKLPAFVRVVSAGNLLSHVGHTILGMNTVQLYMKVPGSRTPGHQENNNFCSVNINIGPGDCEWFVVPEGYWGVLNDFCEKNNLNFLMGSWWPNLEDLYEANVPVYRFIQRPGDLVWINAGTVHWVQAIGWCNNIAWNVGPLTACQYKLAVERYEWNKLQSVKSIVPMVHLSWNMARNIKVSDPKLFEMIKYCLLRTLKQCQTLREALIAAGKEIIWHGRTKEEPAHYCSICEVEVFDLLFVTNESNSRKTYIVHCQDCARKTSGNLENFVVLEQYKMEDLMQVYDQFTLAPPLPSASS

For `CCOC(=O)CCNc1cc(N2CCc3ccccc3CC2)nc(-c2ccccn2)n1`, the Activity (Macrophage [1]) was 298 a.u, the Activity (Macrophage [2]) was 650 a.u and the Drug metabolism [3] was 11.8 µM.

For `CCOC(=O)CCNc1cc(N2CCc3ccccc3CC2)nc(-c2cccnc2)n1`, the Activity (Macrophage [1]) was 60 a.u, the Drug metabolism [4] was 17.4 µM and the Activity (Macrophage [2]) was 357 a.u.

In the case of `O=C(O)CCNc1cc(N2CCc3ccccc3CC2)nc(-c2ccccn2)n1`, the IC50 [5] is reported as over 100 µM, the XC50 (Histone deacetylase 7) is reported as over 300 µM and the IC50 [6] is reported as over 100 µM. It also gave an IC50 [7] of over 100 µM, an IC50 [8] of 44.3 µM and an IC50 [9] of 56 µM. The XC50 [10] was 50 µM.

Compound `O=C(O)CCNc1cc(N2CCc3ccccc3CC2)nc(-c2cccnc2)n1` has an XC50 (Histone deacetylase 7) of over 300 µM, an IC50 [11] of over 100 µM and an XC50 [10] of 16 µM.
